This data set can be described thus: method code SF-AS, from DOI: 10.1016/0048-3575(91)90045-n.
What is called logP is a log measure of how a compound divides between an organic and an aqueous phase. `CCc1cc(Br)ccc1NC(=O)NC(=O)c1c(F)cccc1F` returned a logP of 2.27.
To `O=C(NC(=O)c1c(F)cccc1F)Nc1ccc(Br)c(Cl)c1F` belongs 2.86; to `O=C(NC(=O)c1c(F)cccc1F)Nc1ccccc1F`, 1.03; to `O=C(NC(=O)c1c(F)cccc1F)Nc1cc(C(F)(F)F)c(Cl)cc1F`, 3.02.
On to `O=C(NC(=O)c1c(F)cccc1F)Nc1cc(Cl)ccc1Cl`, for which the logP came out at 2.19.
`O=C(NC(=O)c1c(F)cccc1F)Nc1cc(C(F)(F)F)cc(C(F)(F)F)c1Br` gave a logP of 3.51.
`O=C(NC(=O)c1c(F)cccc1F)Nc1cc(Cl)c(Cl)c(Cl)c1` had a log partition coefficient (logP) of 3.76.
With `O=C(NC(=O)c1c(F)cccc1F)Nc1cc(Cl)cc(C(F)(F)F)c1Cl`, the lipophilicity (logP) was found to be 3.27.
Compound `O=C(NC(=O)c1c(F)cccc1F)Nc1ccccc1Br` displayed a logP of 1.34.
In turn, `O=C(NC(=O)c1c(F)cccc1F)Nc1ccccc1C(F)(F)F` gave a logP of 1.17.
`CCCCc1ccc(NC(=O)NC(=O)c2c(F)cccc2F)cc1Br`: the logP is 4.23.
On to `CCCCc1ccc(NC(=O)NC(=O)c2c(F)cccc2F)c(Br)c1`, for which the lipophilicity (logP) stood at 3.39.
As to `O=C(NC(=O)c1c(F)cccc1F)Nc1cccc(Cl)c1F`, the log partition coefficient (logP) turned out to be 1.83.
For the compound `C#CCOc1cc(NC(=O)NC(=O)c2c(F)cccc2F)c(F)cc1Cl`, the logP stood at 2.2.
Compound `O=C(NC(=O)c1c(F)cccc1F)Nc1cc(C(F)(F)F)ccc1F` showed a log partition coefficient (logP) of 2.24.
With `O=C(NC(=O)c1c(F)cccc1F)Nc1ccc(Oc2ncc(C(F)(F)F)cc2Cl)c(Cl)c1Cl`, the logP is 4.46.
`O=C(NC(=O)c1c(F)cccc1F)Nc1c(F)ccc(C(F)(F)F)c1Br` gave a logP of 2.22.
`CCCCc1ccc(NC(=O)NC(=O)c2c(F)cccc2F)c(C)c1` registered a logP of 3.1.
Compound `Cc1cccc(NC(=O)NC(=O)c2c(F)cccc2F)c1C` returned a logP of 1.35.
To `O=C(NC(=O)c1c(F)cccc1F)Nc1ccc(F)cc1` belongs 1.47; to `O=C(NC(=O)c1c(F)cccc1F)Nc1ccc(Cl)c(C(F)(F)F)c1`, 3.33.
On to `CC(C)Oc1cc(NC(=O)NC(=O)c2c(F)cccc2F)c(F)cc1Cl`, for which the logP was found to be 2.84.
For `O=C(NC(=O)c1c(F)cccc1F)Nc1cc(F)cc(C(F)(F)F)c1Cl` the value was 2.86; for `Cc1c(NC(=O)NC(=O)c2c(F)cccc2F)ccc(Br)c1Cl`, 2.69; for `Cc1cc(NC(=O)NC(=O)c2c(F)cccc2F)cc(C)c1C`, 2.5.
To `O=C(NC(=O)c1c(F)cccc1F)Nc1ccc(Cl)cc1F` belongs 1.91.
To `O=C(NC(=O)c1c(F)cccc1F)Nc1c(F)cc(Br)c(C(F)(F)F)c1Br` belongs 3.07.
In the case of `Cc1ccc(C)c(NC(=O)NC(=O)c2c(F)cccc2F)c1`, the logP came to 1.47.
`O=C(NC(=O)c1c(F)cccc1F)Nc1cc(Cl)cc(Cl)c1Br` had a logP of 3.04.
`O=C(NC(=O)c1c(F)cccc1F)Nc1cc(Cl)c(Cl)c(Cl)c1Cl` came in with a logP of 2.9.
As to `O=C(NC(=O)c1c(F)cccc1F)Nc1cc(Cl)c(Oc2ncc(C(F)(F)F)cc2Cl)c(Cl)c1`, the logP is 5.54.
For `O=C(NC(=O)c1c(F)cccc1F)Nc1cc(Br)cc(C(F)(F)F)c1Cl` the value was 3.41; for `O=C(NC(=O)c1c(F)cccc1F)Nc1ccc(Br)cc1`, 2.29.
For the compound `O=C(NC(=O)c1c(F)cccc1F)Nc1ccccc1`, the lipophilicity (logP) turned out to be 1.16.
With `CCc1cc(NC(=O)NC(=O)c2c(F)cccc2F)ccc1Br`, the logP is 3.33.
`CCc1ccc(NC(=O)NC(=O)c2c(F)cccc2F)cc1` gave a logP of 2.2.
Regarding `O=C(NC(=O)c1c(F)cccc1F)Nc1cc(C(F)(F)F)c(F)cc1F`, the logP was determined as 2.34.
The compound `Cc1ccc(NC(=O)NC(=O)c2c(F)cccc2F)cc1C` gave a logP of 2.1.
For `Cc1cc(C)cc(NC(=O)NC(=O)c2c(F)cccc2F)c1` the value was 2.17; for `Cc1cc(NC(=O)NC(=O)c2c(F)cccc2F)ccc1Cl`, 2.57.
Turning to `Cc1cc(Br)cc(C)c1NC(=O)NC(=O)c1c(F)cccc1F`, the logP stood at 2.12.
Regarding `O=C(NC(=O)c1c(F)cccc1F)Nc1ccc(Br)c(OC(F)(F)F)c1`, the logP came to 3.48.
As to `O=C(NC(=O)c1c(F)cccc1F)Nc1ccc(I)cc1`, the log partition coefficient (logP) came to 2.46.
In turn, `O=C(NC(=O)c1c(F)cccc1F)Nc1cc(OC(F)(F)F)c(F)cc1F` yielded a lipophilicity (logP) of 2.48.
As for `Cc1cc(NC(=O)NC(=O)c2c(F)cccc2F)cc(C)c1Br`, the lipophilicity (logP) came out at 3.28.
The compound `Cc1cc(Oc2ncc(C(F)(F)F)cc2Cl)c(C)cc1NC(=O)NC(=O)c1c(F)cccc1F` gave a log partition coefficient (logP) of 3.84.
Regarding `O=C(NC(=O)c1c(F)cccc1F)Nc1ccc(F)c(C(F)(F)F)c1`, the logP turned out to be 2.64.
To `Cc1ccc(NC(=O)NC(=O)c2c(F)cccc2F)cc1Cl` belongs 2.69.
For `O=C(NC(=O)c1c(F)cccc1F)Nc1ccc(Cl)cc1`, the lipophilicity (logP) came to 2.12.
`CC(C)COc1cc(NC(=O)NC(=O)c2c(F)cccc2F)c(F)cc1Cl`: the logP came to 3.79.
For `O=C(NC(=O)c1c(F)cccc1F)Nc1cc(C(F)(F)F)c(Br)cc1F` the value was 3.17.
`O=C(NC(=O)c1c(F)cccc1F)Nc1cc(Cl)cc(C(F)(F)F)c1F` displayed a logP of 3.15.
For `CSc1cc(Br)ccc1NC(=O)NC(=O)c1c(F)cccc1F` the value was 2.18.
Turning to `O=C(NC(=O)c1c(F)cccc1F)Nc1c(F)cc(Br)cc1F`, the logP came to 1.73.
In the case of `O=C(NC(=O)c1c(F)cccc1F)Nc1ccc(Cl)c(Cl)c1`, the logP turned out to be 3.
To `CCCCc1ccc(NC(=O)NC(=O)c2c(F)cccc2F)cc1` belongs 3.3; to `O=C(NC(=O)c1c(F)cccc1F)Nc1ccc(Cl)c(Cl)c1Cl`, 2.88.
With `O=C(NC(=O)c1c(F)cccc1F)Nc1cc(OC(F)(F)F)c(Br)cc1F`, the logP came to 3.24.
`O=C(NC(=O)c1c(F)cccc1F)Nc1cccc(C(F)(F)F)c1` had a lipophilicity (logP) of 2.56.
For `O=C(NC(=O)c1c(F)cccc1F)Nc1ccc(Cl)cc1Cl` the value was 2.18.
Compound `O=C(NC(=O)c1c(F)cccc1F)Nc1cc(C(F)(F)F)c(Cl)cc1Cl` came in with a lipophilicity (logP) of 3.24.
For `C=CCOc1cc(NC(=O)NC(=O)c2c(F)cccc2F)c(F)cc1Cl` the value was 2.76.
`O=C(NC(=O)c1c(F)cccc1F)Nc1cc(C(F)(F)F)c(Br)c(C(F)(F)F)c1` returned a lipophilicity (logP) of 4.56.
To `O=C(NC(=O)c1c(F)cccc1F)Nc1cc(Cl)cc(Cl)c1` belongs 3.17.
Turning to `Cc1c(Br)ccc(NC(=O)NC(=O)c2c(F)cccc2F)c1Cl`, the logP was determined as 2.73.
For the compound `O=C(NC(=O)c1c(F)cccc1F)Nc1cc(C(F)(F)F)cc(Cl)c1Cl`, the logP amounted to 3.27.
The compound `Cc1ccc(NC(=O)NC(=O)c2c(F)cccc2F)c(C)c1` yielded a lipophilicity (logP) of 1.46.
Regarding `O=C(NC(=O)c1c(F)cccc1F)Nc1ccc(Cl)cc1C(F)(F)F`, the logP came out at 1.98.
The compound `O=C(NC(=O)c1c(F)cccc1F)Nc1ccc(Oc2ncc(C(F)(F)F)cc2Cl)c(Cl)c1` gave a logP of 4.52.
Consider `COc1cc(Br)ccc1NC(=O)NC(=O)c1c(F)cccc1F`, for which the log partition coefficient (logP) stood at 2.02.
Take `O=C(NC(=O)c1c(F)cccc1F)Nc1cccc(Cl)c1Cl`: the logP was found to be 2.09.
For the compound `O=C(NC(=O)c1c(F)cccc1F)Nc1cc([N+](=O)[O-])c(Br)cc1F`, the logP worked out at 2.11.
With `CCCCc1ccc(NC(=O)NC(=O)c2c(F)cccc2F)cc1C`, the logP was 3.64.
`CCCCc1ccc(NC(=O)NC(=O)c2c(F)cccc2F)c([N+](=O)[O-])c1`: the logP was found to be 3.1.
To `O=C(NC(=O)c1c(F)cccc1F)Nc1cc(Cl)c(F)c(Cl)c1F` belongs 2.9.
Turning to `Cc1cc(Oc2ncc(C(F)(F)F)cc2Cl)ccc1NC(=O)NC(=O)c1c(F)cccc1F`, the logP came to 3.23.
`Cc1c(Cl)cccc1NC(=O)NC(=O)c1c(F)cccc1F` had a log partition coefficient (logP) of 1.82.
As to `O=C(NC(=O)c1c(F)cccc1F)Nc1cc(Cl)cc(C(F)(F)F)c1Br`, the logP is 3.26.
`Cc1cc(NC(=O)NC(=O)c2c(F)cccc2F)ccc1Br` registered a logP of 2.8.
For `Cc1cc(Br)ccc1NC(=O)NC(=O)c1c(F)cccc1F` the value was 2.03; for `O=C(NC(=O)c1c(F)cccc1F)Nc1cc(C(F)(F)F)cc(C(F)(F)F)c1`, 3.72.

For the origin of these results see the SangsterLogP compilation.
